Consider 16 compounds from patent publication US11384067B2, “Pyrazole n-linked carbamoyl cyclohexyl acids as LPA antagonists” (BRISTOL-MYERS SQUIBB COMPANY, priority 2017, dated 2022).

By IC50 is commonly meant the midpoint of a concentration-inhibition curve.

In one experiment the test system is UUO mice. The note with it: compared with LPA1 (-/-) mice; cited from earlier work.
The test system of experiment [1] is pancreatic cancer cell lines. Conditions: cited from earlier work.
For experiment [2], the system named is mouse epithelial renal cell line, MCT. Conditions: co-treatment with LPA, MCT cells; cited from earlier work.
Experiment [3] relates to human foetal lung fibroblasts. The note with it: cited from earlier work.
A further experiment addresses T1, human LPA1 (Homo sapiens, UniProt Q92633).
T1 construct: expressed in transfected cells; host or cells: Chinese hamster ovary (CHO) cells
Put plainly: LPA1 functional antagonist assay (LPA-induced calcium flux). The experiment is classed as cell-based. Conditions: CHO cells overexpressing human LPA1, 10 nM LPA, read-out: hLPA1 IC50. The method, then:
The effectiveness of compounds of the present invention as LPA1 inhibitors can be determined in an LPA1 functional antagonist assay as follows:
The cells were then equilibrated to room temperature for 30 minutes before the assay. […] IC50 values were determined by fitting data to a 4-parameter logistic equation (GraphPad Prism, San Diego Calif.).

The subject of another experiment is IPF patients. The note with it: 26-week clinical trial; cited from earlier work.
In another experiment the test system is nerve-injured mice. The note with it: pretreatment; cited from earlier work.

T1 sequence (Q92633 whole entry): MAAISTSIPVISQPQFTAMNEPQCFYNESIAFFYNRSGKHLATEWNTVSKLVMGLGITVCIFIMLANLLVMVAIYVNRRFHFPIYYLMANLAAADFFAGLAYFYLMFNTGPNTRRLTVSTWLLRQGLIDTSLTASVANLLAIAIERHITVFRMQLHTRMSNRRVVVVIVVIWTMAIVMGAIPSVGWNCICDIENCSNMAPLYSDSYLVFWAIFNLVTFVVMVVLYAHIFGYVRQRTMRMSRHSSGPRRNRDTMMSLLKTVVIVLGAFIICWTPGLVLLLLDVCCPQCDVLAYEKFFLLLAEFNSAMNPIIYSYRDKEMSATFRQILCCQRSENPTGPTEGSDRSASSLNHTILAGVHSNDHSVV

As to `Cc1noc(-c2ccc(CSCCC(=O)O)cc2)c1NC(=O)OC(C)c1ccccc1Cl` (stereo not drawn) [Ki16425], the “development of renal fibrosis in UUO mice” value with UUO mice is reported as “closely resembled the profile of LPA1 (−/−) mice”. The “in vitro migration in response to LPA and ascites from pancreatic cancer patients” value in experiment [1] is “effectively blocked”. The “LPA-induced and ascites-induced invasion activity” value in experiment [1] (highly peritoneal metastatic pancreatic cancer cell line) is given as “blocked”. Moreover, the “LPA induction of CTGF expression” value in experiment [2] is “almost completely suppressed”. Further, in experiment [3], the “chemotaxis of human foetal lung fibroblasts induced by BAL from IPF patients” value is given as “blocked” and the “fibroblast chemotactic activity in bronchoalveolar lavage samples of IPF subjects” value is “inhibited”. Regarding `Cc1nc(-c2cnn(C)c2CNC(=O)O[C@H](C)c2ccccc2)ccc1O[C@H]1CCC[C@H](C(=O)O)C1` [Example 5, (1S,3S)-3-((2-methyl-6-(1-methyl-5-(((((R)-1-phenylethoxy)carbonyl)amino)methyl)-1H-pyrazol-4-yl)pyridin-3-yl)oxy)cyclohexane-1-carboxylic acid], the IC50 on human LPA1 came out at 11 nM.

Take `Cc1nc(-c2cnn(C)c2CNC(=O)OCc2cc(F)cc(F)c2)ccc1O[C@H]1CCC[C@H](C(=O)O)C1` [Example 6, (1S,3S)-3-((6-(5-(((((3,5-difluoro-benzyl)oxy)carbonyl)amino)methyl)-1-methyl-1H-pyrazol-4-yl)-2-methyl-pyridin-3-yl)oxy)cyclohexane-1-carboxylic acid]: at human LPA1, the IC50 was determined as 7 nM. Take `CCCCOC(=O)NCc1c(-c2ccc(O[C@H]3CCC[C@H](C(=O)O)C3)cn2)cnn1C` [Example 18, (1S,3S)-3-((6-(5-(((butoxycarbonyl)amino)methyl)-1-methyl-1H-pyrazol-4-yl)pyridin-3-yl)oxy)cyclohexane-1-carboxylic acid]: the IC50 on human LPA1 was 325 nM. The same measure, in the same setting: then `Cc1nc(-c2cnn(C)c2CNC(=O)OCC(C)(C)C)ccc1O[C@H]1CCC[C@H](C(=O)O)C1` [Example 27], with 22 nM; and `Cc1nc(-c2cnn(C)c2CNC(=O)OCC2CCC2)ccc1O[C@H]1CCC[C@H](C(=O)O)C1` [Example 35, (1S,3S)-3-((6-(5-((((cyclobutyl-methoxy)carbonyl)amino)methyl)-1-methyl-1H-pyrazol-4-yl)-2-methyl-pyridin-3-yl)oxy)cyclohexane-carboxylic acid], with 10 nM; and `Cc1nc(-c2cnn(C)c2NC(=O)O[C@H](C)c2ccccc2)ncc1O[C@H]1CCC[C@H](C(=O)O)C1` [Example 40, (1S,3S)-3-((4-methyl-2-(1-methyl-5-((((R)-1-phenylethoxy)carbonyl)amino)-1H-pyrazol-4-yl)pyrimidin-5-yl)oxy)cyclohexane-1-carboxylic acid], with 105 nM.

In the case of `Cn1ncc(-c2ccc(O[C@H]3CCC[C@H](C(=O)O)C3)cn2)c1CNC(=O)OCC(C)(C)C` [Example 14, (1S,3S)-3-((6-(1-methyl-5-((((neo-pentyloxy)carbonyl)amino)methyl)-1H-pyrazol-4-yl)pyridin-3-yl)oxy)cyclohexane-carboxylic acid], the IC50 at human LPA1 was found to be 207 nM.

On to `CCCCOC(=O)N(C)Cc1c(-c2ccc(O[C@H]3CCC[C@H](C(=O)O)C3)c(C)n2)cnn1C` [Example 2, (1S,3S)-3-((6-(5-(((Butoxycarbonyl)(methyl)amino)methyl)-1-methyl-1H-pyrazol-4-yl)-2-methylpyridin-3-yl)oxy)cyclohexanecarboxylic Acid], for which, on human LPA1, the IC50 came to 49 nM. Consider `Cc1nc(-c2cnn(C)c2NC(=O)OCC2CC2)ncc1O[C@H]1CCC[C@H](C(=O)O)C1` [Example 44, (1S,3S)-3-((2-(5-(((cyclopropyl-methoxy)carbonyl)amino)-1-methyl-1H-pyrazol-4-yl)-4-methylpyrimidin-5-yl)oxy)cyclohexane-1-carboxylic acid], for which the concentration for half-maximal inhibition (IC50) at human LPA1 was determined as 995 nM. Regarding `CCCOC(=O)NCc1c(-c2ccc(O[C@H]3CCC[C@H](C(=O)O)C3)c(C)n2)cnn1C` [Example 20, (1S,3S)-3-((2-methyl-6-(1-methyl-5-(((propoxycarbonyl)amino)methyl)-1H-pyrazol-4-yl)pyridin-3-yl)oxy)cyclohexane-1-carboxylic acid], the IC50 at human LPA1 came to 275 nM.

Turning to `Cc1noc(-c2ccc(-c3ccc(C4(C(=O)O)CC4)cc3)cc2)c1NC(=O)O[C@H](C)c1ccccc1` [BMS-986020], in the experiment on IPF patients, the “rate of FVC (forced vital capacity) decline” value is recorded as “significantly reduce”.

In the case of `C[C@@H](N)[C@H]1CC[C@H](C(=O)Nc2ccncc2)CC1` [Example Y-27632], the allodynia and hyperalgesia result in the experiment with nerve-injured mice is “completely abolished”. Turning to `CN(Cc1c(-c2ccc(O[C@H]3CCC[C@H](C(=O)O)C3)cn2)cnn1C)C(=O)OCc1ccccc1` [Example 24, (1S,3S)-3-((6-(5-((((benzyloxy)carbonyl)(methyl)amino)methyl)-1-methyl-1H-pyrazol-4-yl)pyridin-3-yl)oxy)cyclohexane-1-carboxylic acid], the IC50 on human LPA1 stood at 204 nM. `Cc1cccc(COC(=O)NCc2c(-c3ccc(O[C@H]4CCC[C@H](C(=O)O)C4)cn3)cnn2C)c1` [Example 21, (1S,3S)-3-((6-(1-methyl-5-(((((3-methylbenzyl)oxy)carbonyl)amino)methyl)-1H-pyrazol-4-yl)pyridin-3-yl)oxy)cyclohexane-1-carboxylic acid]: at human LPA1, the IC50 is 182 nM. On to `Cc1nc(-c2cnn(C)c2CNC(=O)OCC(C)C)ccc1O[C@H]1CCC[C@H](C(=O)O)C1` [Example 28, (1S,3S)-3-((6-(5-(((isobutoxy-carbonyl)amino)methyl)-1-methyl-1H-pyrazol-4-yl)-2-methylpyridin-3-yl)oxy)cyclohexane-1-carboxylic acid], for which the IC50 on human LPA1 is 29 nM.
